Activity calls are given as the source filed them.
Key:
[1] = target: Induced myeloid leukemia cell differentiation protein Mcl-1 (Homo sapiens, UniProt Q07820); type: functional
[2] = target: T1, Tyrosine-protein phosphatase non-receptor type 7 (Homo sapiens, UniProt P35236); experiment: redox-active compounds inhibiting HePTP phosphatase – biochemical, fluorescence, mechanism study (AID 2068); type: functional
T1 sequence (P35236 whole entry): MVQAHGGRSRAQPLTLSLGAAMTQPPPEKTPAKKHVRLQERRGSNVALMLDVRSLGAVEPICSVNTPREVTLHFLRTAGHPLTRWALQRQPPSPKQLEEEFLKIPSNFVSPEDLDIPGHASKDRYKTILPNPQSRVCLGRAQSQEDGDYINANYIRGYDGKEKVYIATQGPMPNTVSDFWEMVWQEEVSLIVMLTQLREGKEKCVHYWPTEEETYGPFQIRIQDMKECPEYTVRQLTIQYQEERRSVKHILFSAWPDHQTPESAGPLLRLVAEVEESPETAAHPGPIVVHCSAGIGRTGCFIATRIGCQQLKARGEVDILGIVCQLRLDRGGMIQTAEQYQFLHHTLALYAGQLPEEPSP

[3] = target: Genome polyprotein (dengue virus type 2, UniProt P29990); experiment: flavivirus cap methylation enzyme inhibition – biochemical, confirmation dose response, primary screen (AID 588689); type: functional
[4] = target: T2, Polyadenylate-binding protein 1 (Homo sapiens, UniProt P11940); experiment: MLLE binding blockers, Cy5 peptide tracer – biochemical, fluorescence polarization, Cy5-PAM2 peptide, secondary, miRNA deadenylation inhibitor project, dose response (AID 602260); type: functional; details: read-out: IC50_Mean
T2 sequence (P11940 whole entry, the tested form may be a part): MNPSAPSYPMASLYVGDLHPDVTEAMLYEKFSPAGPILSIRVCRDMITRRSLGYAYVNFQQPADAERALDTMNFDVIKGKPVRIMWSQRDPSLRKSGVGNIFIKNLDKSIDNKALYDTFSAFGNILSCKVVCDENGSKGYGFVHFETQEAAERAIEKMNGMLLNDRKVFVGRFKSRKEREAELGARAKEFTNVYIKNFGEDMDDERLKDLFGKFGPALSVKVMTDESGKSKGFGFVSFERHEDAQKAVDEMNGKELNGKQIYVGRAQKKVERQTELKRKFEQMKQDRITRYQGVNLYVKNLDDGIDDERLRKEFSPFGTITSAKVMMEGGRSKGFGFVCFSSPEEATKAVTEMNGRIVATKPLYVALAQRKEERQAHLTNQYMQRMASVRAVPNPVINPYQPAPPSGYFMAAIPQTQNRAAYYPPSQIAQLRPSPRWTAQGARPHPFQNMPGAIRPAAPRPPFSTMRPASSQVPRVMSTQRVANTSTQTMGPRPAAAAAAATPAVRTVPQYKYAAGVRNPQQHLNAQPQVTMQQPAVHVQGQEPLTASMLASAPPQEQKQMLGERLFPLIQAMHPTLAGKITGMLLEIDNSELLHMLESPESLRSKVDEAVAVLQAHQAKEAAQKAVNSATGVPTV

[5] = target: T2, Polyadenylate-binding protein 1; experiment: MLLE domain peptide-binding blockers, IC50 – biochemical, fluorescence polarization, FITC-PAM2 peptide, dose response (AID 602259); type: functional; details: read-out: IC50_Mean
[6] = tested on: J774.A1; experiment: Confirmation of image-based Screening Assay for Inhibitors of Phagocytosis. [Related pubchem assays (depositor defined):AID1029, AID1643]; type: functional, cell-based; details: Mus musculus
[7] = target: Peroxisome proliferator-activated receptor gamma/Nuclear receptor coactivator 1 (Homo sapiens, UniProt P37231); experiment: TR-FRET dose response biochemical High Throughput Screening assay for agonists of the steroid receptor coactivator 1 (SRC-1) recruitment by the peroxisome proliferator-activated receptor gamma (PPAR gamma): non-selective agonists. [Related pubchem assays (depositor defined):AID1300, AID1808, AID504735, AID631]; type: protein assay
[8] = target: Bcl-2-like protein 10 (Homo sapiens, UniProt Q9HD36); experiment: Bcl-B/TR3 peptide binding disruption – biochemical, fluorescence polarization, FITC-TR3 peptide, selectivity assay for Bfl-1 inhibitor project, primary screen (AID 748);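 further: fluorescence polarization from a fluorescein-labelled TR3 peptide binding purified Bcl-B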
[9] = target: Peroxisome proliferator-activated receptor gamma/Nuclear receptor coactivator 3 (Homo sapiens, UniProt P37231); experiment: TR-FRET dose response biochemical High Throughput Screening assay for agonists of the steroid receptor coactivator 3 (SRC-3) recruitment by the peroxisome proliferator-activated receptor gamma (PPAR gamma): non-selective agonists. [Related pubchem assays: 1301 (Confirmation screen.), 1048 (Primary screen.)]; type: functional
[10] = target: Estrogen receptor beta (Homo sapiens, UniProt Q92731);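 further: recombinant ER-beta bound to coactivator SRC1 peptide in presence of estradiol agonist; inhibitors block coactivator peptide binding and lower the FRET signal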
Sequence of Estrogen receptor beta (Q92731 whole entry): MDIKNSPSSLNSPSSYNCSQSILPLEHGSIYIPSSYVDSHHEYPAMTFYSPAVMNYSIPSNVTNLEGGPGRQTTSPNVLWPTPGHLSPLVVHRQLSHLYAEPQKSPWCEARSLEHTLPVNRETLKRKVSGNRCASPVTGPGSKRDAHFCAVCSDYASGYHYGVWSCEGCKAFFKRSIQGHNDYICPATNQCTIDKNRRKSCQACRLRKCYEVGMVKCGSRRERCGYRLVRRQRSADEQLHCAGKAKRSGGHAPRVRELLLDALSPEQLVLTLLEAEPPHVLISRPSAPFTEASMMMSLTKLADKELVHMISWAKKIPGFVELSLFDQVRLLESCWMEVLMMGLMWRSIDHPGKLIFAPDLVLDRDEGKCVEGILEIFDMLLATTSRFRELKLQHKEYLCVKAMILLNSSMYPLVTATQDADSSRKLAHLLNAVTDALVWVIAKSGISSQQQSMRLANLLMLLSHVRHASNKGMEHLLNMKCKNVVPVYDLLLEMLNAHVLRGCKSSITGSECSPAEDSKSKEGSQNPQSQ

[11] = target: Peroxisome proliferator-activated receptor gamma/Nuclear receptor coactivator 2 (Homo sapiens, UniProt P37231); experiment: TR-FRET dose response biochemical High Throughput Screening assay for agonists of the steroid receptor coactivator 2 (SRC-2) recruitment by the peroxisome proliferator-activated receptor gamma (PPAR gamma): non-selective agonists. [Related pubchem assays: 1297, 1032 ]; type: functional
[12] = target: Mitogen-activated protein kinase 10 (Homo sapiens, UniProt P53779); experiment: Dose response biochemical screening assay for inhibitors of c-Jun N-Terminal Kinase 3 (JNK3). [Related pubchem assays: 746 ]
[13] = NIH-3T3 fibroblast cytotoxicity, dose response, cytotoxicity control, cell-based, fluorescence, Alamar Blue, secondary assay (AID 2327); type: functional;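 further: NIH-3T3 mouse fibroblasts cultured with fluconazole at 8 µg/mL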
[14] = fluconazole-exposed Candida albicans growth modulators – fluorescence, retest, confirmation (AID 2467); type: functional, cell-based
[15] = target: NACHT, LRR and PYD domains-containing protein 3 (Homo sapiens, UniProt Q96P20); experiment: NALP3 inhibitors in yeast, dose response, luminescent (AID 488799); type: functional
[16] = target: G-protein coupled receptor 35 (Homo sapiens, UniProt Q9HC97); experiment: inhibition of zaprinast-stimulated GPR35 beta-arrestin translocation – imaging, U2OS, beta-arrestin-GFP, zaprinast agonist, primary screen (AID 2058); type: functional;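 further: antagonist potency meaning inhibition of agonist-induced arrestin redistribution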
Sequence of G-protein coupled receptor 35 (Q9HC97 whole entry): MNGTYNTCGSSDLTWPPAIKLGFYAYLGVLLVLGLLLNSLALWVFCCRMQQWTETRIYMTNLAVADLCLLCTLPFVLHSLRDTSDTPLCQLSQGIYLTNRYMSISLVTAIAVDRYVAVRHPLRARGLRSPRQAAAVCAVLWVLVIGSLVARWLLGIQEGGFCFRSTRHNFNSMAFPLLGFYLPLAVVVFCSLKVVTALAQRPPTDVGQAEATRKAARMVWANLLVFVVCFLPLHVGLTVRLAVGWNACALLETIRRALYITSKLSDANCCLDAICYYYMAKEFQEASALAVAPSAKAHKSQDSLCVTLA

[17] = target: Beta-lactamase (Pseudomonas aeruginosa, UniProt Q79MP6);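 further: biochemical dose-response test of metallo-beta-lactamase enzyme inhibition, read out by epi-absorbance; purified recombinant IMP-1 metallo-beta-lactamase with nitrocefin as substrate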
[18] = target: Beta-lactamase (Salmonella choleraesuis (strain SC-B67), UniProt Q5J463)
[19] = target: Keap1/Nrf2 (Homo sapiens, UniProt Q14145); experiment: disruptors of Keap1 binding to Nrf2 peptide – biochemical, fluorescence polarization, cherry-picked samples, dose response (AID 588683)
[20] = target: Envelope glycoprotein gp160 (Human immunodeficiency virus 1, UniProt Q6QLK5); experiment: cell-free HIV fusion peptide-binding blockers – biochemical, uHTS, fluorescence dequenching, […] (AID 1986)
Sequence of Envelope glycoprotein gp160 (Q6QLK5 whole entry, the tested form may be a part): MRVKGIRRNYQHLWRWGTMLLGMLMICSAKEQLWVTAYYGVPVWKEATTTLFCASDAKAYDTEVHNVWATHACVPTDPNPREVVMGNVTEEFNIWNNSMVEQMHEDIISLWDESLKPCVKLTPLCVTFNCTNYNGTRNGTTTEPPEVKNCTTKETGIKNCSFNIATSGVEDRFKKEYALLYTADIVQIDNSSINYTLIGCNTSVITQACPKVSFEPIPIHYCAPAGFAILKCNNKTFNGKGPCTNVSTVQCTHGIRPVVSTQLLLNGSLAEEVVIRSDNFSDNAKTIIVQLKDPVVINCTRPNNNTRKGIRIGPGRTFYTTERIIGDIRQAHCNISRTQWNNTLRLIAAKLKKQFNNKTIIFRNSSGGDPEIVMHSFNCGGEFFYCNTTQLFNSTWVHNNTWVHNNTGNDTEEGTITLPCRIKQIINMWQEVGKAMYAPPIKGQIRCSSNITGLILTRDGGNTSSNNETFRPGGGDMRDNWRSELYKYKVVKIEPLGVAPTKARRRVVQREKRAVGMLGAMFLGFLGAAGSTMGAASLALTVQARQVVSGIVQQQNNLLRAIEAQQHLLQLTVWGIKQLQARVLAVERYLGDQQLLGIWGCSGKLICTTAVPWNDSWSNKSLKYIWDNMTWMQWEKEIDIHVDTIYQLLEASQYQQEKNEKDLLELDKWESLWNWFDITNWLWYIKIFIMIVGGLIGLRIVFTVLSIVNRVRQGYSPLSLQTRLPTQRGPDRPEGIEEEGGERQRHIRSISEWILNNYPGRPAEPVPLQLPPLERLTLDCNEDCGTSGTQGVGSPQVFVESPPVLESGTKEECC

[21] = target: T3, SUMO-activating enzyme (Homo sapiens, UniProt Q9UBT2); experiment: blockers of UBC9-mediated SUMO conjugation – biochemical, AlphaScreen, SUMOylation inhibitor project, confirmation (AID 2018); type: functional
T3 sequence (Q9UBE0 whole entry): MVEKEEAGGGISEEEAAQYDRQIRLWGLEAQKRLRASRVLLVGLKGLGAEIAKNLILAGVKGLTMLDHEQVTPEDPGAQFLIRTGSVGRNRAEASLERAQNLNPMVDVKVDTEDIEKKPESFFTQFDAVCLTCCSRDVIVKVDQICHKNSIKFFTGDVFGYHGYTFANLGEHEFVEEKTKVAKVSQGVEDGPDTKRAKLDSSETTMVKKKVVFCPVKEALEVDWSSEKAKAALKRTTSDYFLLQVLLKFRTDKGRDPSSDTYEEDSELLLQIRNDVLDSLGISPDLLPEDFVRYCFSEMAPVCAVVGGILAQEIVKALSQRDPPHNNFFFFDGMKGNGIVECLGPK
T3 sequence (Q9UBT2 whole entry): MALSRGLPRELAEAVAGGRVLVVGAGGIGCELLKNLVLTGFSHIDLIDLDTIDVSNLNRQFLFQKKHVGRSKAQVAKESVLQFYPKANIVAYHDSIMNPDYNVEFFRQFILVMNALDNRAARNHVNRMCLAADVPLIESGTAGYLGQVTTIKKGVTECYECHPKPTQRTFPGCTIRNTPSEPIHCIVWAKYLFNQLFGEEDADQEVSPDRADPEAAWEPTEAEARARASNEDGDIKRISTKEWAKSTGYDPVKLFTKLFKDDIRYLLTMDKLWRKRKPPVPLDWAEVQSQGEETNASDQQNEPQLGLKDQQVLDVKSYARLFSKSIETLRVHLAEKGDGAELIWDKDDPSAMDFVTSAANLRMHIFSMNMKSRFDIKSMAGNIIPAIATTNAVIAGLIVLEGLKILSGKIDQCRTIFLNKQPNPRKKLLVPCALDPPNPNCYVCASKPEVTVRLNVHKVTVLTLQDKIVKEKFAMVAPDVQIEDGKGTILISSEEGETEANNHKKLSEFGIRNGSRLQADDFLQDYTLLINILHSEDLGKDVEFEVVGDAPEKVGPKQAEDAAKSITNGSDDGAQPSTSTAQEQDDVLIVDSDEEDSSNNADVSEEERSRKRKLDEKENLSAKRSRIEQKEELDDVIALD

[22] = target: T3, SUMO-activating enzyme; experiment: blockers of SAE1/SAE2–UBC9 SUMO transfer – biochemical, HTRF, uHTS, primary screen (AID 2006); type: protein-complex assay
[23] = target: Eukaryotic translation initiation factor 4E (Mus musculus, UniProt P63073); experiment: blockers of eIF4G binding by eIF4E – biochemical, TR-FRET, dose response (AID 855); type: functional;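 further: potency for disrupting eIF4E binding to eIF4GI seen as loss of FRET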
Sequence of Eukaryotic translation initiation factor 4E (P63073 whole entry): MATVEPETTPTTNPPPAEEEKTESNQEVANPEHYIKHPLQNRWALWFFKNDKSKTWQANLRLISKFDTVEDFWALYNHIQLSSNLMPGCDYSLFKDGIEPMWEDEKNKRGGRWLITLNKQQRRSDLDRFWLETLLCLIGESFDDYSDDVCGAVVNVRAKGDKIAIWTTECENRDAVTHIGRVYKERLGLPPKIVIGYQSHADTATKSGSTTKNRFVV

[24] = target: T4, Small ubiquitin-related modifier 2 (Homo sapiens, UniProt P61956); experiment: disruption of SUMO2 interaction with SIM peptide – biochemical, fluorescence polarization, uHTS hits, selectivity assay for SUMO1 interaction inhibitor project, dose response (AID 624385); type: functional; details: read-out: IC50_Mean
T4 sequence (P61956 whole entry): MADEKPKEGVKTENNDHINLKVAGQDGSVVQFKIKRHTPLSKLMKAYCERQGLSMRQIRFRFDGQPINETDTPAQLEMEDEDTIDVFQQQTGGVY

[25] = target: T5, Small ubiquitin-related modifier 1 (Homo sapiens, UniProt P63165); experiment: SUMO1 protein interaction blockers, potency – biochemical, fluorescence polarization, uHTS hits, dose response (AID 624382); type: functional; details: read-out: IC50_Mean
T5 sequence (P63165 whole entry): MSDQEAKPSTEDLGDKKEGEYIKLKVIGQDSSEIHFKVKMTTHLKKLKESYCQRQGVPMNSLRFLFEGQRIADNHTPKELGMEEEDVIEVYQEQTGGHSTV

[26] = target: T4, Small ubiquitin-related modifier 2; experiment: SUMO2 binding disruption by SUMO1 hits – biochemical, FRET, human SUMO2, uHTS hits, selectivity assay for SUMO1 interaction inhibitor project, dose response (AID 624384); type: functional; details: read-out: IC50_Mean
[27] = target: T5, Small ubiquitin-related modifier 1; experiment: SUMO1 protein-protein binding blockers, potency – biochemical, FRET, dose response (AID 624383); type: functional; details: read-out: IC50_Mean
[28] = target: T6, Eukaryotic translation initiation factor 4H (Homo sapiens, UniProt Q15056); experiment: eIF4H binding inhibition – biochemical, uHTS, fluorescence polarization, translation initiation inhibitor project, primary screen (AID 2012)
[29] = target: T2, Polyadenylate-binding protein 1; experiment: blockers of PABP interaction with poly(A) – biochemical, fluorescence polarization, […] (AID 2014)
[30] = target: T6, Eukaryotic translation initiation factor 4H; experiment: inhibitors of translation initiation factor eIF4H – SAR follow-up (AID 435011); type: functional
[31] = target: T7, DNA dC->dU-editing enzyme APOBEC-3A (Homo sapiens, UniProt P31941); experiment: Dose Response confirmation of small molecule APOBEC3A DNA Deaminase Inhibitors via a fluorescence-based single-stranded DNA deaminase assay. [Related pubchem assays (depositor defined):AID493011, AID493024]; type: functional
T7 sequence (P31941 whole entry): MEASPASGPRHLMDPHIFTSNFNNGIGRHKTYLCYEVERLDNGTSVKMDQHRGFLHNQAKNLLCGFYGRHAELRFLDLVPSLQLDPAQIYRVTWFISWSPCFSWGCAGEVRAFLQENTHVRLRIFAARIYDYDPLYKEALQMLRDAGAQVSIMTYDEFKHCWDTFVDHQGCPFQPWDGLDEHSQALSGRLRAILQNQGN

[32] = target: T2, Polyadenylate-binding protein 1; experiment: PABP inhibition in translation initiation, SAR follow-up (AID 435018); type: functional
[33] = target: T8, DNA dC->dU-editing enzyme APOBEC-3G (Homo sapiens, UniProt Q9HC16); type: functional
T8 sequence (Q9HC16 whole entry): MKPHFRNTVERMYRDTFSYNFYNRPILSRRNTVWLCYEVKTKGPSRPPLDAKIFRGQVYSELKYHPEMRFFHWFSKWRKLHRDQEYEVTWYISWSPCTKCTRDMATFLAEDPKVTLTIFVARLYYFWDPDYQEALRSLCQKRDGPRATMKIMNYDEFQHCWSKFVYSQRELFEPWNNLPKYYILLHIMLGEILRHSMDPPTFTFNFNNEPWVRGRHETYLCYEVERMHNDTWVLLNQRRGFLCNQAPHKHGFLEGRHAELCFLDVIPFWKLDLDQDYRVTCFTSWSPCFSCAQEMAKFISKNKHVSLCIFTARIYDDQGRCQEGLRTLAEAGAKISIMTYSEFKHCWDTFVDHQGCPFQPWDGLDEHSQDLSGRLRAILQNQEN

[34] = target: T7, DNA dC->dU-editing enzyme APOBEC-3A; experiment: A3A deaminase inhibition for selectivity – biochemical, dose response (AID 504722); type: functional
[35] = target: T8, DNA dC->dU-editing enzyme APOBEC-3G; experiment: Dose Response confirmation of small molecule APOBEC3G DNA Deaminase Inhibitors via a fluorescence-based single-stranded DNA deaminase assay. [Related pubchem assays (depositor defined):AID493012, AID493028]; type: functional
[36] = target: T9, Rac GTPase-activating protein 1 (Homo sapiens, UniProt Q9H0H5); experiment: blockers of MgcRacGAP-driven Rac1 GTP hydrolysis – biochemical, ADP Hunter fluorescence, primary and confirmatory, confirmation (AID 624330); type: functional
T9 sequence (Q9H0H5 whole entry): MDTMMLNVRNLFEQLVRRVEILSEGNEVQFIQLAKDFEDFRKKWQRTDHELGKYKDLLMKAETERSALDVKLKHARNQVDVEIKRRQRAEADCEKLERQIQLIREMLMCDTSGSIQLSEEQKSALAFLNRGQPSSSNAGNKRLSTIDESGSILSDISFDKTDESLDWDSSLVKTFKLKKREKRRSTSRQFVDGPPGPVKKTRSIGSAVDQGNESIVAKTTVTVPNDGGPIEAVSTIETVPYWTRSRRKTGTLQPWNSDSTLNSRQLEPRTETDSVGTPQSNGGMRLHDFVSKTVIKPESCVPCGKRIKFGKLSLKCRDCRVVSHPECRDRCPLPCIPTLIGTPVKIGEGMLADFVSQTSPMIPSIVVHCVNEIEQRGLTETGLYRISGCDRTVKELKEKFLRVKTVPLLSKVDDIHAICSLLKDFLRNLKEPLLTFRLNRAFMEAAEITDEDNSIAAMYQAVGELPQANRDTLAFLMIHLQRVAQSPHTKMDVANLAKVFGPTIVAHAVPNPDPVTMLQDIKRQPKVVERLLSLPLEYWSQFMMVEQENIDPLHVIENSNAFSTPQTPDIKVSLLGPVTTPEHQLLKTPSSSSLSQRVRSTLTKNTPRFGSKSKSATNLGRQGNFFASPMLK

[37] = target: Melanin-concentrating hormone receptor 1 (Homo sapiens, UniProt Q99705); experiment: Late-stage fluorescence-based counterscreen for antagonists of the G-protein coupled receptor 7 (GPR7): cell-based dose response assay to identify antagonists of the melanin-concentrating hormone receptor 1 (MCHR1). [Related pubchem assays (depositor defined):AID1861, AID1880, AID1952, AID2148, AID2251, AID2257, AID485339]; type: functional;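 further: stimulated with 30 nM MCH peptide agonist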
[38] = target: T10, Neuropeptides B/W receptor type 1 (Homo sapiens, UniProt P48145); experiment: human NPBW1 receptor blockade, IC50 – cell-based, fluorescence, dose response, late-stage follow-up (AID 463251); type: functional
T10 sequence (P48145 whole entry): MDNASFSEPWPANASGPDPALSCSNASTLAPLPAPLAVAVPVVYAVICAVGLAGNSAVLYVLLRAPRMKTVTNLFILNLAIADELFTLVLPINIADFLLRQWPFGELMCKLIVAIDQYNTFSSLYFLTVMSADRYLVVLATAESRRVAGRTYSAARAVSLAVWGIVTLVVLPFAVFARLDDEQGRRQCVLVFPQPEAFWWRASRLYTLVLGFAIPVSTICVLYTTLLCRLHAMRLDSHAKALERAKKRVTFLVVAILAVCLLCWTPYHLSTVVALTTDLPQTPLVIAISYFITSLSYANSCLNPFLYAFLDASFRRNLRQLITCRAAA

[39] = target: Voltage-dependent T-type calcium channel subunit alpha-1H (Homo sapiens, UniProt O95180); experiment: human CACNA1H calcium influx blockade – cell-based, synthetic library set 1, calcium flux (AID 493022); type: functional

Sequence of Induced myeloid leukemia cell differentiation protein Mcl-1 (Q07820 whole entry): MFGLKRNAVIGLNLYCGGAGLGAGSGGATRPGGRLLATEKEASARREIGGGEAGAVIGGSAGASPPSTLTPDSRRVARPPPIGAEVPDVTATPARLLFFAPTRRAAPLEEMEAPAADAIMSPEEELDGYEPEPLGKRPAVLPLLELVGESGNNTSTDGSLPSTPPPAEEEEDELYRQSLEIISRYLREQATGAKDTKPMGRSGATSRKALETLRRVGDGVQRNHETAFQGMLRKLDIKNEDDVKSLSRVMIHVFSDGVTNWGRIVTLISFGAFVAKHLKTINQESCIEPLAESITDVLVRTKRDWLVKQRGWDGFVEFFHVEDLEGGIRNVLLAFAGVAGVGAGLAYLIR

COc1ccc2nc(-c3ccco3)c(-c3ccco3)nc2c1
IC50 [1]: 3.09 µM (active)
IC50 [2]: 2.79 µM (active)
IC50 [3]: 73.9 µM (active)
IC50 [4]: > 66 µM (inactive)
IC50 [5]: > 66 µM (inactive)

COc1ccccc1/C=C/C(=O)OCC(=O)Nc1cc(C(F)(F)F)ccc1N1CCOCC1
IC50 [6]: > 25 µM (inactive)

CC(=O)c1sc2nc(SCC(=O)N3CCCCC3)[nH]c(=O)c2c1C
EC50 [7]: > 79.4 µM (inactive)
IC50 [8]: > 100 µM (inactive)
EC50 [9]: > 79.4 µM (not active)
IC50 [10]: 14.6 µM (active)
EC50 [11]: > 79.4 µM (not active)
IC50 [12]: > 93.1 µM (not active)

c1ccc(Sc2cccc3ccccc23)c(CNC2=NCCN2)c1
EC50 [13]: > 150 µM (inactive)
EC50 [14]: 3.8 µM (active)
IC50 [15]: 11.7 µM (active)

O=c1cc(C(F)(F)F)c2cc3c4c(c2o1)CCCN4CCC3
IC50 [16]: 1.37 µM (active)
IC50 [17]: 78.2 µM (inactive)
IC50 [18]: 5.57 µM (active)
AC50 [19]: 2.8 µM (active)

O=C(O)c1cccc2c1NC(c1cccc([N+](=O)[O-])c1)C1CC(Sc3ccccc3[N+](=O)[O-])C(Cl)C21 (stereo not given)
IC50 [20]: 12.5 µM (active)
IC50 [21]: 2.43 µM (active)
IC50 [22]: 13.3 µM (active)
IC50 [1]: 3.05 µM (active)
IC50 [23]: 50 µM (inactive)
IC50 [24]: 6.5 µM (active)
IC50 [25]: 6.45 µM (active)
IC50 [26]: 6.16 µM (active)
IC50 [27]: 36.6 µM (inactive)

CCOC(=O)c1ccc2c(c1)N(CC)C(=O)c1ccccc1S2
IC50 [28]: > 100 µM (inactive)
IC50 [29]: 12.2 µM (active)
IC50 [30]: 20.7 µM (active)
IC50 [31]: 2.24 µM (active)
IC50 [32]: 3.48 µM (active)
IC50 [33]: 4.15 µM (active)

CCOCCCn1c(=O)c2ccccc2n2c(S)nnc12
IC50 [34]: > 100 µM (inactive)
IC50 [35]: 5.54 µM (active)
IC50 [36]: 21.9 µM (active)

COC(=O)c1ccc(-n2ncc(Cl)c(Oc3ccc(OC)cc3)c2=O)cc1
IC50 [37]: > 20 µM (inactive)
IC50 [38]: 4.1 µM (active)

O=C(COc1ccccc1F)Nc1nnc(-c2ccc3c(c2)OCCO3)o1
EC50 [39]: 10 µM (active)

Source: ChEMBL document CHEMBL1201862, “PubChem BioAssay data set” (2004)
